# Reference: patent US8735398B2 (Bristol-Myers Squibb Company, priority 2009, dated 2014)
# Read-outs that look alike come from different tables or passages of the source.
# Tested on: HCV 1b genotype
# Assay: HCV replicon assay (HCV-neo replicon cells, wild-type)
# Type: cell-based, Hepatitis C virus
# Conditions: HCV 1b genotype replicon
# Procedure, shortened: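 Inhibition was tested in replicon-bearing cells, both wild-type HCV-neo and lines with NS5A resistance substitutions, using the O'Boyle et al. 2005 replicon method or luciferase-reporter formats.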
# [1] = Hepatitis C virus, class symbol, read-out: EC50 Range against HCV 1b
# [2] = Hepatitis C virus, read-out: EC50 1b
# [3] = Hepatitis C virus, class symbols, read-out: EC50 Range against HCV 1b
# [4] = class symbol, read-out: EC50 Range against HCV 1b
SMILES,EC50 [1],EC50 [2],other results
"C[C@H](NC(=O)[C@](C)(O)c1ccccc1)C(=O)Nc1ccc(-c2cc(-c3ccc(NC(=O)[C@H](C)NC(=O)[C@](C)(O)c4ccccc4)cc3)[nH]n2)cc1 [OL-46, (2R,2′R)-N,N′-(1H-pyrazole-3,5-diylbis(4,1-phenyleneimino((2S)-1-oxo-1,2-propanediyl)))bis(2-hydroxy-2-phenylpropanamide)]",4.57 to 99 nM,–,–
"CC(=O)N1CC=C[C@H]1C(=O)Nc1ccc(-c2cc(-c3ccc(NC(=O)[C@@H]4C=CCN4C(C)=O)cc3)[nH]n2)cc1 [OL-30, (2S,2′S)-N,N′-(1H-pyrazole-3,5-diyldi-4,1-phenylene)bis(1-acetyl-2,5-dihydro-1H-pyrrole-2-carboxamide)]",1000 to 10000 nM,–,–
"CC(C)(C)O[C@@H]1C[C@@H](C(=O)Nc2ccc(-c3cc(-c4ccc(NC(=O)[C@@H]5C[C@@H](OC(C)(C)C)CN5C(=O)OCc5ccccc5)cc4)[nH]n3)cc2)N(C(=O)OCc2ccccc2)C1 [OL-49, dibenzyl (2S,4R,2′S,4′R)-2,2′-(1H-pyrazole-3,5-diylbis(4,1-phenylenecarbamoyl))bis(4-tert-butoxy-1-pyrrolidinecarboxylate)]",100 to 999 nM,230 nM,–
"CN1CCN(C(C(=O)N2CCC[C@H]2C(=O)Nc2ccc(-c3cnc(-c4ccc(NC(=O)[C@@H]5CCCN5C(=O)C(c5ccccc5)N5CCN(C)CC5)cc4)o3)cc2)c2ccccc2)CC1 (stereo partly drawn) [Example D-8, (2S,2′S)-N,N′-(1,3-oxazole-2,5-diyldi-4,1-phenylene)bis(1-((4-methyl-1-piperazinyl)(phenyl)acetyl)-2-pyrrolidinecarboxamide)]",4.57 to 99 nM,–,–
"CC(Oc1cccc(Cl)c1)C(=O)N1CCC[C@H]1C(=O)Nc1ccc(-c2cnc(-c3ccc(NC(=O)[C@@H]4CCCN4C(=O)C(C)Oc4cccc(Cl)c4)cc3)o2)cc1 (stereo partly drawn) [XY-12, (2S,2′S)-N,N′-(1,3-oxazole-2,5-diyldi-4,1-phenylene)bis(1-(2-(3-chlorophenoxy)propanoyl)-2-pyrrolidinecarboxamide)]",–,220 nM,EC50 [3]: 100 to 999 nM
"Cc1cccc(CC(=O)N2C[C@H](OC(C)(C)C)C[C@H]2C(=O)Nc2ccc(-c3cnc(-c4ccc(NC(=O)[C@@H]5C[C@@H](OC(C)(C)C)CN5C(=O)Cc5cccc(C)c5)cc4)o3)cc2)c1 [XY-69, (2S,4R,2′S,4′R)-N,N′-(1,3-oxazole-2,5-diyldi-4,1-phenylene)bis(4-tert-butoxy-1-((3-methylphenyl)acetyl)-2-pyrrolidinecarboxamide)]",–,–,EC50 [3]: 100 to 999 nM
"CC(=O)N1CCC[C@H]1C(=O)Nc1ccc(-c2nc(-c3ccc(NC(=O)[C@@H]4C=CCN4C(=O)c4ccccc4)cc3)cs2)cc1 [Example D-53, (2S)-N-[4-[2-[4-[[[(2S)-1-acetyl-2-pyrrolidinyl]carbonyl]amino]phenyl]-4-thiazolyl]phenyl]-1-benzoyl-2,5-dihydro-1H-pyrrole-2-carboxamide]",1000 to 10000 nM,1130 nM,–
"O=C(Nc1ccc(-c2cnc(-c3ccc(NC(=O)[C@@H]4CCCN4C(=O)C(O)c4c[nH]c5ncccc45)cc3)o2)cc1)[C@@H]1CCCN1C(=O)C(O)c1c[nH]c2ncccc12 (stereo partly drawn) [Example D-15, (2S,2′S)-N,N′-(4,4′-(oxazole-2,5-diyl)bis(4,1-phenylene))bis(1-(2-hydroxy-2-(1H-pyrrolo[2,3-b]pyridin-3-yl)acetyl)pyrrolidine-2-carboxamide)]",–,–,EC50 [4]: 1000 to 10000 nM; EC50 (read-out: EC50 1b): 6830 nM
"CCOc1ccccc1C(=O)N1CCC[C@H]1C(=O)Nc1ccc(-c2nnc(-c3ccc(NC(=O)[C@@H]4CCCN4C(=O)c4ccccc4OCC)cc3)o2)cc1 [RK-8, (2S,2′S)-N,N′-(1,3,4-oxadiazole-2,5-diyldi-4,1-phenylene)bis(1-(2-ethoxybenzoyl)-2-pyrrolidinecarboxamide)]",1000 to 10000 nM,1850 nM,–
"O=C(Nc1cccc(-c2ccc(-c3cccc(NC(=O)[C@@H]4CCCN4C(=O)Cc4ccccc4)c3)s2)c1)[C@@H]1CCCN1C(=O)Cc1ccccc1 [OL-25, (2S,2′S)-N,N′-(2,5-thienediyldi-3,1-phenylene)bis[1-(phenylacetyl)-2-pyrrolidinecarboxamide]]",4.57 to 99 nM,–,–
"O=C(Nc1ccc(-c2cnc(-c3ccc(NC(=O)[C@@H]4C[C@@H](O)CN4C(=O)C4CCC4)cc3)o2)cc1)[C@@H]1C[C@@H](O)CN1C(=O)C1CCC1 [XY-46, (2S,4R,2′S,4′R)-N,N′-(1,3-oxazole-2,5-diyldi-4,1-phenylene)bis(1-(cyclobutylcarbonyl)-4-hydroxy-2-pyrrolidinecarboxamide)]",–,–,EC50 [3]: 100 to 999 nM
"O=C(Nc1ccc(-c2cnc(-c3ccc(NC(=O)[C@@H]4CCCN4C(=O)C4CCOC4)cc3)o2)cc1)[C@@H]1CCCN1C(=O)C1CCOC1 (stereo partly drawn) [XY-18, (2S,2′S)-N,N′-(1,3-oxazole-2,5-diyldi-4,1-phenylene)bis(1-(tetrahydro-3-furanylcarbonyl)-2-pyrrolidinecarboxamide)]",–,–,EC50 [3]: 4.57 to 99 nM
"CC(=O)N1CCC[C@H]1C(=O)Nc1ccc(-c2sc(C)nc2-c2ccc(NC(=O)[C@@H]3CCCN3C(=O)Cc3ccccc3)cc2)cc1 [Example D-42, (2S)-1-acetyl-N-(4-(2-methyl-4-(4-((((2S)-1-(phenylacetyl)-2-pyrrolidinyl)carbonyl)amino)phenyl)-1,3-thiazol-5-yl)phenyl)-2-pyrrolidinecarboxamide]",1000 to 10000 nM,–,–
"O=C(Nc1ccc(-c2cc(-c3ccc(NC(=O)[C@@H]4C=CCN4C(=O)C4CCC4)cc3)[nH]n2)cc1)[C@@H]1C=CCN1C(=O)C1CCC1 [OL-38, (2S,2′S)-N,N′-(1H-pyrazole-3,5-diyldi-4,1-phenylene)bis(1-(cyclobutylcarbonyl)-2,5-dihydro-1H-pyrrole-2-carboxamide)]",1000 to 10000 nM,10000 nM,–
"O=C(Nc1ccc(-c2cnc(-c3ccc(NC(=O)[C@@H]4CCCN4C(=O)CC4CC4)cc3)o2)cc1)C1CCCN1C(=O)CC1CC1 (stereo partly drawn) [Example D-20, (2′S)-N,N′-(1,3-oxazole-2,5-diyldi-4,1-phenylene)bis(1-(cyclopropylacetyl)-2-pyrrolidinecarboxamide)]",100 to 999 nM,–,–
"O=C(Nc1ccc(-c2cnc(-c3ccc(NC(=O)[C@@H]4C[C@@H](O)CN4C(=O)Cc4cccnc4)cc3)o2)cc1)[C@@H]1C[C@@H](O)CN1C(=O)Cc1cccnc1 [XY-45, (2S,4R,2′S,4′R)-N,N′-(1,3-oxazole-2,5-diyldi-4,1-phenylene)bis(4-hydroxy-1-(3-pyridinylacetyl)-2-pyrrolidinecarboxamide)]",–,–,EC50 [3]: 1000 to 10000 nM
"CCc1ccccc1C(=O)N1CC=C[C@H]1C(=O)Nc1ccc(-c2ncc(-c3ccc(NC(=O)[C@@H]4CCCN4C(C)=O)cc3)o2)cc1 [Example D-2, (2S)-N-[4-[5-[4-[[[(2S)-1-acetyl-2-pyrrolidinyl]carbonyl]amino]phenyl]-2-oxazolyl]phenyl]-1-(2-ethylbenzoyl)-2,5-dihydro-1H-pyrrole-2-carboxamide]",100 to 999 nM,–,–
"CC(C)(C)OC(=O)N1CCCC1(Cc1ccccc1)C(=O)N1CCC[C@H]1C(=O)Nc1ccc(-c2cnc(-c3ccc(NC(=O)[C@@H]4CCCN4C(=O)C4(Cc5ccccc5)CCCN4C(=O)OC(C)(C)C)cc3)o2)cc1 (stereo partly drawn) [Example D-32, di-tert-butyl 2,2′-(1,3-oxazole-2,5-diylbis(4,1-phenylenecarbamoyl(2S)-2,1-pyrrolidinediylcarbonyl))bis(2-benzyl-1-pyrrolidinecarboxylate)]",–,–,EC50 [4]: 1000 to 10000 nM
"O=C(Nc1ccc(-c2nnc(-c3ccc(NC(=O)[C@@H]4CCCN4C(=O)c4cccc(Cl)n4)cc3)o2)cc1)[C@@H]1CCCN1C(=O)c1cccc(Cl)n1 [RK-12, (2S,2′S)-N,N′-(1,3,4-oxadiazole-2,5-diyldi-4,1-phenylene)bis(1-((6-chloro-2-pyridinyl)carbonyl)-2-pyrrolidinecarboxamide)]",1000 to 10000 nM,3960 nM,–
"O=C(Nc1ccc(-c2cnc(-c3ccc(NC(=O)[C@@H]4CCCN4C(=O)C(O)c4cccs4)cc3)o2)cc1)[C@@H]1CCCN1C(=O)C(O)c1cccs1 (stereo partly drawn) [JR-6, (2S,2′S)-N,N′-(2,5-oxazolediyldi-4,1-phenylene)bis[1-(hydroxy-2-thienylacetyl)-2-pyrrolidinecarboxamide]]",–,< 5 nM,EC50 [3]: < 4.57 nM
"C[C@](O)(C(=O)N1CCC[C@H]1C(=O)Nc1ccc(-c2nnc(-c3ccc(NC(=O)[C@@H]4CCCN4C(=O)[C@](C)(O)c4ccccc4)cc3)o2)cc1)c1ccccc1 [RK-28, (2S,2′S)-N,N′-(1,3,4-oxadiazole-2,5-diyldi-4,1-phenylene)bis(1-((2R)-2-hydroxy-2-phenylpropanoyl)-2-pyrrolidinecarboxamide)]",< 4.57 nM,3 nM,–
"Cc1nc(-c2ccc(NC(=O)[C@@H]3CCCN3C(=O)OCc3ccccc3)cc2)c(-c2ccc(NC(=O)[C@@H]3CCCN3C(=O)OCc3ccccc3)cc2)o1 [OL-5, (2S,2′S)-2,2′-[(2-methyl-4,5-oxazolediyl)bis(4,1-phenyleneiminocarbonyl)]bis-1-pyrrolidinecarboxylic acid, bis(phenylmethyl) ester]",100 to 999 nM,–,–
"O=C(Nc1ccc(-c2cc(-c3ccc(NC(=O)[C@@H]4CCCN4C(=O)c4nc(Cl)cc5ccccc45)cc3)[nH]n2)cc1)[C@@H]1CCCN1C(=O)c1nc(Cl)cc2ccccc12 [OL-40, (2S,2′S)-N,N′-(1H-pyrazole-3,5-diyldi-4,1-phenylene)bis(1-((3-chloro-1-isoquinolinyl)carbonyl)-2-pyrrolidinecarboxamide)]",4.57 to 99 nM,–,–
"CC(=O)N1CCC[C@H]1C(=O)Nc1ccc(-c2cnc(-c3ccc(NC(=O)[C@@H]4C=CCN4C(=O)Cc4cccs4)cc3)o2)cc1 [Example D-1, (2S)-N-[4-[5-[4-[[[(2S)-1-acetyl-2-pyrrolidinyl]carbonyl]amino]phenyl]-2-oxazolyl]phenyl]-2,5-dihydro-1-(2-thienylacetyl)-1H-pyrrole-2-carboxamide]",1000 to 10000 nM,–,–
"O=C(Nc1ccc(-c2cnc(-c3ccc(NC(=O)[C@@H]4CCCN4C(=O)Cc4ccc(F)cc4)cc3)o2)cc1)[C@@H]1CCCN1C(=O)Cc1ccc(F)cc1 [XY-22, (2S,2′S)-N,N′-(1,3-oxazole-2,5-diyldi-4,1-phenylene)bis(1-((4-fluorophenyl)acetyl)-2-pyrrolidinecarboxamide)]",–,< 4.5 nM,EC50 [3]: < 4.57 nM
